We go through 13 compounds from ChEMBL document CHEMBL3352306, “Synthesis and antitumor activity of feruloyl and caffeoyl derivatives” (Bioorg Med Chem Lett, 2014).

pIC50: −log10 of the molar value. Calls of active or inactive are those of the source. The rule behind the calls is not given here.

In general, inhibition in vivo refers to how much of the control response was suppressed. Broadly, the pIC50 is −log10 of the IC50, conventionally taken in molar units.

One test relates to CCRF S-180. Briefly: Antitumor activity against mouse S180 cells implanted in mouse assessed as inhibition of tumor growth at 40 mg/kg. The test is classed as functional.
Test [1] concerns HL-60. Briefly: Induction of cell morphological changes in human HL60 cells at 2.5 to 10 ug/mL. The test is classed as functional, cell-based.
Test [2] is described as follows: Antitumor activity against human SGC7901 cells assessed as inhibition of cell growth by MTT assay. Particulars: SGC-7901. The test is classed as functional, cell-based. In general terms: Formazan colour is commonly taken as a measure of viable cells.
For the next test, the system named is SiHa. Briefly: Antitumor activity against human SiHa cells assessed as inhibition of cell growth by MTT assay. It is filed as functional, cell-based.
The subject of a further test is BeWo. Briefly: Antitumor activity against human Bewo cells assessed as inhibition of cell growth by MTT assay. It is filed as functional, cell-based.
For test [3], the system named is HL-60. Briefly: Induction of apoptosis in human HL60 cells at 0.5 to 2 ug/mL by flow cytometry. It is filed as functional, cell-based. (In general: A flow cytometer gives signals particle by particle.)
The next test deals with A549. Briefly: Antitumor activity against human A549 cells assessed as inhibition of cell growth by MTT assay. The test is classed as functional, cell-based.
The nature of test [4]: Antitumor activity against human HL60 cells assessed as inhibition of cell growth by MTT assay. It is filed as functional, cell-based. Particulars: HL-60.
The test system of a further test is HepG2. Briefly: Antitumor activity against human HepG2 cells assessed as inhibition of cell growth by MTT assay. It is filed as functional, cell-based.
In the next test the test system is MCF7. Nature of the test: Antitumor activity against human MCF7 cells assessed as inhibition of cell growth by MTT assay. It is filed as functional, cell-based.
In another test the test system is HeLa. Nature of the test: Antitumor activity against human HeLa cells assessed as inhibition of cell growth by MTT assay. It is filed as functional, cell-based.
Test [5] in a line: Antitumor activity against human Bel7404 cells assessed as inhibition of cell growth by MTT assay. The test is classed as functional, cell-based. The note with it: BEL-7404.
The nature of test [6]: Antitumor activity against human […] cells assessed as inhibition of cell growth by MTT assay. It is filed as functional, cell-based.

In the case of `O=P1(N(CCCl)CCCl)NCCCO1` (stereo not given) [CYCLOPHOSPHAMIDE ANHYDROUS], the inhibition in vivo at 40 mg/kg with CCRF S-180 came out at 54.8%.
With `O=C(/C=C/c1cc(O)c(O)c([N+](=O)[O-])c1)OC12CC3CC(CC(C3)C1)C2`, the outcome with HL-60 [1] and with HL-60 [3] was Active. Besides, the negative-log IC50 (pIC50) was 5.34 in test [2]; 5.17 with SiHa; 5.25 in the test on BeWo; 5.36 in the test on A549; 5.39 in [4]; 5.42 in the test with HepG2. The pIC50 is 5.39 in the test with MCF7, 5.89 in the test with HeLa, 4.67 in test [5] and 5.09 in test [6]. The inhibition in vivo at 40 mg/kg in the test with CCRF S-180 is 36.7%.
For the compound `O=C(/C=C/c1ccc(O)c(O)c1)NC12CC3CC(CC(C3)C1)C2`, the pIC50 in test [2] is 4.53; in the test with SiHa, 4.38; in the test with BeWo, 5.96; in [4] it was 5.09; in the test with HepG2, 4.52; in the test with HeLa, 4.99.
As for `O=C(/C=C/c1ccc(O)c(O)c1)OCCCCc1ccccc1`, the pIC50 in test [2] is 4.40; in the test on SiHa, 4.05; in the test on BeWo, 5.24; in test [4], 4.95; in the test on HepG2, 4.31; in the test with HeLa it was 4.50.
With `COC(=O)/C=C/c1ccc(O)c(O)c1` [METHYLCAFFEATE], the pIC50 in test [2] was less than 4.00; in the test with SiHa it was 4.22; in the test on BeWo it was 4.76; in [4], 4.91; with HepG2, 4.09; in the test on HeLa, 4.28.
For the compound `CCCOC(=O)/C=C/c1ccc(O)c(O)c1`, the negative logarithm of the IC50 (pIC50) in test [2] was less than 4.00; in the test on SiHa it was 4.35; in the test on BeWo, 5.29; in test [4], 4.93; with HepG2, less than 4.00; in the test on HeLa, 4.54.
Take `O=C(/C=C/c1cc(O)c(O)c(Br)c1)OCCc1ccccc1`: the negative-log IC50 (pIC50) in test [2] is 5.17; with SiHa, 4.55; in the test on BeWo, 5.08; in [4], 5.07; with HepG2, 5.35; in the test with HeLa, 4.76.
Regarding `CCCCCCC(C)OC(=O)/C=C/c1ccc(O)c(O)c1` (stereo not given), the pIC50 in [2] was 4.76; in the test on SiHa, 4.30; in the test on BeWo it was 6.39; in [4] it was 5.29; in the test with HepG2, 4.62; with HeLa, 4.42.
In the case of `CCOC(=O)/C=C/c1ccc(O)c(O)c1` [ETHYL CAFFEATE], the pIC50 in [2] is less than 4.00; in the test with SiHa, 4.47; with BeWo, 5.21; in [4], 5.05; with HepG2, 4.19; in the test on HeLa it was 4.63.
Regarding `O=C(/C=C/c1ccc(O)c(O)c1)OC1CCCCC1`, the pIC50 was 4.02 in test [2]; 4.29 with SiHa; 5.56 with BeWo; 5.08 in test [4]; 4.34 in the test on HepG2; 4.62 in the test with HeLa.
Take `CC(C)(C)OC(=O)/C=C/c1ccc(O)c(O)c1`: the pIC50 in test [2] is 4.10; in the test on SiHa it was 4.38; in the test with BeWo, 5.46; in test [4], 5.10; in the test on HepG2 it was 4.16; in the test on HeLa it was 4.78.
Regarding `O=C(/C=C/c1ccc(O)c(O)c1)OC12CC3CC(CC(C3)C1)C2`, the pIC50 in test [2] is 4.53; with SiHa it was less than 4.00; in the test with BeWo it was less than 4.00; in test [4] it was 5.09; in the test with HepG2, 4.52; in the test with HeLa, less than 4.00.
Take `CCCCOC(=O)/C=C/c1ccc(O)c(O)c1` [BUTYL CAFFEATE]: the pIC50 in test [2] was less than 4.00; in the test with SiHa, 4.39; in the test with BeWo, 5.27; in test [4], 5.12; in the test on HepG2, less than 4.00; with HeLa it was 4.39.
